Data on twelve compounds can be found in US20220388964A1 (HiberCell, Inc., priority 2019, published 2022).

The IC50 is the concentration needed to halve the response being measured.

Bounds are passed on as bounds.

In this experiment the target is GCN2 (Homo sapiens, UniProt Q9P2K8). In words: TR-FRET biochemical assay for inhibition of GCN2 (Example 108, for Examples 73-105).
Sequence of GCN2 (Q9P2K8 whole entry): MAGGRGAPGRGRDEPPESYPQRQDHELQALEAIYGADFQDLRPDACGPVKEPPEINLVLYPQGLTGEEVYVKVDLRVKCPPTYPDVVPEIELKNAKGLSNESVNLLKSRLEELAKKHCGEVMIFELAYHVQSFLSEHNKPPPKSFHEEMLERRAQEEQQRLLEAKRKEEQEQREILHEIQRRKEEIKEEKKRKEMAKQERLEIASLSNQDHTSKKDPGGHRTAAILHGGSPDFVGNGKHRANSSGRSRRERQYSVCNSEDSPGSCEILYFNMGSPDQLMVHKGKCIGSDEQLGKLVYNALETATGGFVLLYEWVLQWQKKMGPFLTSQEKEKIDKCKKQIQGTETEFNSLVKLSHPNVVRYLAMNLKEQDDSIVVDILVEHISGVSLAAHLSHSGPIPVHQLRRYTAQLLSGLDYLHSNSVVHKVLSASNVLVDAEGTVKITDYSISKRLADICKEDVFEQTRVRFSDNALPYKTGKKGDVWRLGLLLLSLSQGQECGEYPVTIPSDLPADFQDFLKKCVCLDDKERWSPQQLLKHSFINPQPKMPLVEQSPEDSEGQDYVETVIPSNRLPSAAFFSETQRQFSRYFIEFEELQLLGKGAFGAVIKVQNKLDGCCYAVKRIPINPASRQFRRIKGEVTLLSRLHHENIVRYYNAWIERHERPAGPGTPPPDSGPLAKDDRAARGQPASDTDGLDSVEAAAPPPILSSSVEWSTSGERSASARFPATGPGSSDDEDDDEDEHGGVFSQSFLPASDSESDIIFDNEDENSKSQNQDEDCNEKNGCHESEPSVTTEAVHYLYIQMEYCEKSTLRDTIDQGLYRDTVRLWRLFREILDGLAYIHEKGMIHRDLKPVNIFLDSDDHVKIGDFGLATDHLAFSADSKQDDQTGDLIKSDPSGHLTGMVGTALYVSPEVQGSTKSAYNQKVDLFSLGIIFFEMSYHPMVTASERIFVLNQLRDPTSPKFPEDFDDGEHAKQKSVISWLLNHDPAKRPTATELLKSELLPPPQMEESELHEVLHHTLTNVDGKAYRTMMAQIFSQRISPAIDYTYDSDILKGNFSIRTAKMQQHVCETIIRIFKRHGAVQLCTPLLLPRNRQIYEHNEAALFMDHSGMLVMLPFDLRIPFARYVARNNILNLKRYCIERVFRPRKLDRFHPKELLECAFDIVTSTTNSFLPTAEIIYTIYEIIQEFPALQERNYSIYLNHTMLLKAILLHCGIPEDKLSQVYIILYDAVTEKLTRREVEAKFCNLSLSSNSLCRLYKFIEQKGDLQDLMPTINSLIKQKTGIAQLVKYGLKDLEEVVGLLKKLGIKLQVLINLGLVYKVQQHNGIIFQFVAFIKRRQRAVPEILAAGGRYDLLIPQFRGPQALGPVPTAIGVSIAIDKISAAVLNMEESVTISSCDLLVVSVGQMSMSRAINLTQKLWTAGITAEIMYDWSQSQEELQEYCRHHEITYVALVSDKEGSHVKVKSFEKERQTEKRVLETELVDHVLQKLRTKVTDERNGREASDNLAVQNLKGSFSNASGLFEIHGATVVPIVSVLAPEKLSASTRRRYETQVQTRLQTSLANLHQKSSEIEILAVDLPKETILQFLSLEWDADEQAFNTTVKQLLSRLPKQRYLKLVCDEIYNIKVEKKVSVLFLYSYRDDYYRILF
`CNC(=O)c1n[nH]c2c(F)c(-c3c(F)ccc(NS(=O)(=O)c4cc(F)cc5c4CCC5O)c3F)ccc12` (stereo not drawn) [Example 76, 6-[2,6-Difluoro-3-(6-fluoro-1-hydroxy-2,3-dihydro-1H-indene-4-sulfonamido)phenyl]-7-fluoro-N-methyl-1H-indazole-3-carboxamide] showed an IC50 below 500 nM.

`CNC(=O)c1n[nH]c2c(F)c(-c3c(F)ccc(NS(=O)(=O)C4CCCN(C)C4)c3F)ccc12` (stereo not drawn) [Example 77, 6-[2,6-difluoro-3-(1-methylpiperidine-3-sulfonamido)phenyl]-7-fluoro-N-methyl-1H-indazole-3-carboxamide] gave an IC50 of 2500 to 10000 nM.

The compound `COc1ncc(Cl)cc1S(=O)(=O)Nc1ccc(F)c(-c2ccc3c(C(=O)NC4CCCC4)n[nH]c3c2F)c1F` [Example 79, 6-[3-(5-Chloro-2-methoxypyridine-3-sulfonamido)-2,6-difluorophenyl]-N-cyclopentyl-7-fluoro-1H-indazole-3-carboxamide] gave an IC50 below 500 nM.

As for `COc1ncc(Cl)cc1S(=O)(=O)Nc1ccc(F)c(-c2ccc3c(C(=O)NC4CCCC(O)C4)n[nH]c3c2F)c1F` (stereo not drawn) [Example 80, 6-[3-(5-Chloro-2-methoxypyridine-3-sulfonamido)-2,6-difluorophenyl]-7-fluoro-N-(3-hydroxycyclohexyl)-1H-indazole-3-carboxamide], the IC50 was below 500 nM.

The compound `COc1ncc(Cl)cc1S(=O)(=O)Nc1ccc(F)c(-c2ccc3c(C(=O)NC4CC4)n[nH]c3c2F)c1F` [Example 81, 6-[3-(5-Chloro-2-methoxypyridine-3-sulfonamido)-2,6-difluorophenyl]-N-cyclopropyl-7-fluoro-1H-indazole-3-carboxamide] registered an IC50 below 500 nM.

In turn, `COc1ncc(Cl)cc1S(=O)(=O)Nc1ccc(F)c(-c2ccc3c(C(=O)NCC4CCOCC4)n[nH]c3c2F)c1F` [Example 82] gave an IC50 below 500 nM.

The compound `COc1ncc(Cl)cc1S(=O)(=O)Nc1ccc(F)c(-c2ccc3c(C(=O)NCCN4CCCC4)n[nH]c3c2F)c1F` [Example 83, 6-[3-(5-chloro-2-methoxypyridine-3-sulfonamido)-2,6-difluorophenyl]-7-fluoro-N-[2-(pyrrolidin-1-yl)ethyl]-1H-indazole-3-carboxamide] came in with an IC50 below 500 nM.

For `COc1ncc(Cl)cc1S(=O)(=O)Nc1ccc(F)c(-c2ccc3c(C(=O)NCCS(C)(=O)=O)n[nH]c3c2F)c1F` [Example 84, 6-[3-(5-Chloro-2-methoxypyridine-3-sulfonamido)-2,6-difluorophenyl]-7-fluoro-N-(2-methanesulfonylethyl)-1H-indazole-3-carboxamide], the IC50 was below 500 nM.

`COc1ncc(Cl)cc1S(=O)(=O)Nc1ccc(F)c(-c2ccc3c(C(=O)NCC4CC4)n[nH]c3c2F)c1F` [Example 85, 6-[3-(5-Chloro-2-methoxypyridine-3-sulfonamido)-2,6-difluorophenyl]-N-(cyclopropylmethyl)-7-fluoro-1H-indazole-3-carboxamide] had a half-inhibitory concentration (IC50) below 500 nM.

As for `COc1ncc(Cl)cc1S(=O)(=O)Nc1ccc(F)c(-c2ccc3c(C(=O)NCCN4CCOCC4)n[nH]c3c2F)c1F` [Example 86, 6-[3-(5-Chloro-2-methoxypyridine-3-sulfonamido)-2,6-difluorophenyl]-7-fluoro-N-[2-(morpholin-4-yl)ethyl]-1H-indazole-3-carboxamide], the IC50 was below 500 nM.

`COc1ncc(Cl)cc1S(=O)(=O)Nc1ccc(F)c(-c2ccc3c(C(=O)NC4CCCC4O)n[nH]c3c2F)c1F` (stereo not drawn) [Example 87, 6-[3-(5-Chloro-2-methoxypyridine-3-sulfonamido)-2,6-difluorophenyl]-7-fluoro-N-(2-hydroxycyclopentyl)-1H-indazole-3-carboxamide]: the IC50 is below 500 nM.

Consider `COc1ncc(Cl)cc1S(=O)(=O)Nc1ccc(F)c(-c2ccc3c(C(=O)NC4CCCCC4O)n[nH]c3c2F)c1F` (stereo not drawn) [Example 88, 6-[3-(5-Chloro-2-methoxypyridine-3-sulfonamido)-2,6-difluorophenyl]-7-fluoro-N-(2-hydroxycyclohexyl)-1H-indazole-3-carboxamide], for which the IC50 was below 500 nM.
